Our source for the MIC values is ChEMBL document CHEMBL1157344, “Botcinins E and F and Botcinolide from Botrytis cinerea and structural revision of botcinolides” (2006).

SMILES strings stand for the structures. ≈ marks a conversion by molar mass, not a printed value.

This assay deals with Pyricularia grisea. Briefly: Antifungal activity against Magnaporthe grisea. The class given is functional.

In general, MIC refers to the smallest concentration in the dilution series that meets the test's criterion for growth inhibition. `CCCC[C@H](O)/C=C/C(=O)O[C@@H]1[C@@H](C)[C@@H]2OC(=O)[C@H](C)[C@H](O)[C@@]2(C)O[C@H]1C` [3-O-DEACETYLBOTCININ A] showed an MIC of 100 µM (≈ 38.4 µg/mL).
Molecule `CCCC[C@H](O)/C=C/C(=O)O[C@@H]1[C@@H](C)[C@H](O)[C@@](C)([C@@H](O)[C@@H](C)C(=O)O)O[C@H]1C` [BOTCINIC ACID] registered an MIC of 100 µM (≈ 40.2 µg/mL).
Molecule `CCCCCC[C@H](O)/C=C/C(=O)O[C@@H]1[C@@H](C)[C@@H]2OC(=O)[C@H](C)[C@H](OC(C)=O)[C@@]2(C)O[C@H]1C` [BOTCININ B] yielded an MIC of 12.5 µM (≈ 5.68 µg/mL).
Turning to `CCCC[C@H](O)/C=C/C(=O)O[C@@H]1[C@@H](C)[C@@H]2OC(=O)C(C)=C[C@@]2(C)O[C@H]1C` [BOTCININ D], the MIC came to 12.5 µM (≈ 4.58 µg/mL).
The molecule `CCCC[C@H](O)/C=C/C(=O)O[C@@H]1[C@@H](C)[C@@H]2OC(=O)[C@@H](C)[C@H](O)[C@@]2(C)O[C@H]1C` [BOTCININ F] showed an MIC of 100 µM (≈ 38.4 µg/mL).
